Test results reported in patent US20220324835A1 (Nurix Therapeutics, Inc., priority 2018, published 2022).
pIC50: −log10 of the molar value.

How the values were obtained:
T-cell [1] = assay: CD25 cell surface staining on T-cells co-stimulated with anti-CD3 and anti-CD28 antibody (Biological Example 2); assay type: cell-based, human; conditions: Homo sapiens, T-cell, read-out: CD25 staining Anti-CD3/Anti-CD28 stimulation; for fold induction at 0.3 µM: 0.3 μM Cbl-b inhibitor; for fold induction at 1 µM: 1 μM Cbl-b inhibitor; for fold induction at 4 µM: 4 μM Cbl-b inhibitor
Description: (§1) Methods for experimentally determining increased T-cell activation, increased T-cell proliferation, decreased T-cell exhaustion, and/or decreased T-cell tolerance are well known in the art.
(§2) Modulation of activity of an immune cell, such as a T-cell, a B cell or a NK cell can be measured by determining a baseline value for a parameter of interest (e.g., cytokine secretion). […] A reference value then is obtained for T-cell activation after contacting or administering said Cbl-b inhibitor. The reference value is compared to the baseline value in order to determine the amount of T-cell activation due to contact or administration of the Cbl-b inhibitor or composition thereof. […] Immune cell activation can be assessed by measuring biological markers of activation such as increased cytokine secretion, increased cell surface expression of activation markers (e.g., cell surface markers), or increased phosphorylation of proteins in a downstream signaling pathway. The fold over baseline value that indicates immune cell activation can be determined for the parameter being tested and the conditions under which the immune cell were treated. For example, for measuring T-cell activation, a baseline value can be obtained from T-cells stimulated with anti-CD3 antibody in combination with anti-CD28 antibody, wherein the cells are not incubated with a Cbl-b inhibitor. […] A positive response for immune cell activation can then be determined by the obtained reference value. […]

T-cell [2] = assay: IL-2 secretion from T-cells stimulated with anti-CD3 antibody alone (Biological Example 2); assay type: cell-based, human; conditions: T-cell, read-out: IL-2 secretion Anti-CD3 stimulation; for fold induction at 1 µM: 1 μM Cbl-b inhibitor; for fold induction at 8 µM: 8 μM Cbl-b inhibitor
Description: as §1
(§3) Modulation of activity of an immune cell, such as a T-cell, a B cell or a NK cell can be measured by determining a baseline value for a parameter of interest (e.g., cytokine secretion). […] A reference value then is obtained for T-cell activation after contacting or administering said Cbl-b inhibitor. The reference value is compared to the baseline value in order to determine the amount of T-cell activation due to contact or administration of the Cbl-b inhibitor or composition thereof. […] Immune cell activation can be assessed by measuring biological markers of activation such as increased cytokine secretion, increased cell surface expression of activation markers (e.g., cell surface markers), or increased phosphorylation of proteins in a downstream signaling pathway. The fold over baseline value that indicates immune cell activation can be determined for the parameter being tested and the conditions under which the immune cell were treated. For example, for measuring T-cell activation, a baseline value can be obtained from T-cells stimulated with anti-CD3 antibody in combination with anti-CD28 antibody, wherein the cells are not incubated with a Cbl-b inhibitor. […] A positive response for immune cell activation can then be determined by the obtained reference value.
(§4) In some embodiments, a baseline value can be obtained from T-cells stimulated with anti-CD3 antibody alone, wherein the cells are not incubated with a Cbl-b inhibitor. In some embodiments, a positive response for T-cell activation as measured by cytokine secretion (e.g., IL-2 secretion) by T-cells stimulated with anti-CD3 antibody alone in the presence of a Cbl-b inhibitor is at least 0.1-fold over the baseline value for cytokine secretion (e.g., IL-2 secretion) obtained from T-cells stimulated with anti-CD3 antibody alone in the absence of a Cbl-b inhibitor. In some embodiments, a positive response for T-cell activation as measured by surface marker expression (e.g., CD25 surface marker staining) by T-cells stimulated with anti-CD3 antibody alone in the presence of a Cbl-b inhibitor is at least 0.6-fold over the baseline value for surface marker expression (e.g., CD25 surface marker staining) obtained from T-cells stimulated with anti-CD3 antibody alone in the absence of a Cbl-b inhibitor.

T-cell [3] = assay: IL-2 secretion from T-cells co-stimulated with anti-CD3 and anti-CD28 antibody (Biological Example 2); assay type: cell-based, human; conditions: Homo sapiens, T-cell, read-out: IL-2 secretion Anti-CD3/Anti-CD28 stimulation; for fold induction at 0.3 µM: 0.3 μM Cbl-b inhibitor; for fold induction at 1 µM: 1 μM Cbl-b inhibitor; for fold induction at 4 µM: 4 μM Cbl-b inhibitor
Description: as §1, §2

Cbl-b [4] = target: T1, Cbl-b (Homo sapiens, UniProt Q13191); assay: Cbl-b activity assay (Cbl-b inhibition assay), TR-FRET of Cbl-b interaction with UbcH5B-Ub; assay type: biochemical; conditions: assay buffer with 100 mM NaCl, 60 nM Src kinase; read-out: Cbl-b activity IC50
Method in brief: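 UbcH5B (C85K) conjugated to N-terminally Bodipy-Fluorescein-labeled ubiquitin served as the fluorescent partner. After compound preincubation, Src kinase (60 nM) with 1 mM ATP and 5 mM MgCl2 (final) was added for 1.5 h, followed by a further 1 h incubation. Some values were obtained with 50 mM NaCl and 30 nM Src.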

T-cell [5] = assay: CD25 cell surface staining on T-cells stimulated with anti-CD3 antibody alone (Biological Example 2); assay type: cell-based, human; conditions: T-cell, read-out: CD25 staining Anti-CD3 stimulation; for fold induction at 1 µM: 1 μM Cbl-b inhibitor; for fold induction at 8 µM: 8 μM Cbl-b inhibitor
Description: as §1, §3, §4

Cbl-b [6] = target: T1, Cbl-b; assay: Cbl-b inhibition assay (Cbl-b activity assay, FRET, Biological Example 1; 100 mM NaCl, 60 nM Src kinase); assay type: biochemical; conditions: upper bound stated in text lists; read-out: IC50 values in the Cbl-b inhibition assay of Biological Example 1
Method in brief: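 Steps: Src kinase phosphorylates N-terminal biotinylated Avi-tagged Cbl-b; phosphorylated Cbl-b binds Bodipy-fluorescein ubiquitin-loaded UbcH5B; streptavidin-terbium on Cbl-b sits close to the fluorescein label, producing FRET. Inhibitors block UbcH5B-Ub binding.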

[7] = fold change over baseline (anti-CD3/anti-CD28 stimulated T-cells without inhibitor)
[8] = Homo sapiens, fold change over baseline (anti-CD3/anti-CD28 stimulated T-cells without inhibitor)
[9] = fold change over baseline, primary human total T-cells

T1 sequence (Q13191 36-427): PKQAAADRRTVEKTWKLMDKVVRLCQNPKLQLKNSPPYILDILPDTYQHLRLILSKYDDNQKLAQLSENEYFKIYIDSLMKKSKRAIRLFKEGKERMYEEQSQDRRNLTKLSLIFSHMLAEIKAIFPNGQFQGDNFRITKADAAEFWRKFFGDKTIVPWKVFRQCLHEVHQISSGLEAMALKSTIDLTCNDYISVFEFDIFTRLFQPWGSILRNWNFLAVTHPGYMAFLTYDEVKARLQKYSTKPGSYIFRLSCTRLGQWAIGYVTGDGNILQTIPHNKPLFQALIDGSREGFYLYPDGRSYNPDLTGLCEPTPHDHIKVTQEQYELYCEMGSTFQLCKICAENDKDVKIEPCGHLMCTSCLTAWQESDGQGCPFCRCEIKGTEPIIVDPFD

Structure (SMILES)	fold induction at 0.3 µM (T-cell [1]; [7])	fold induction at 1 µM (T-cell [1]; [7])	fold induction at 1 µM (T-cell [2]; [8])	fold induction at 0.3 µM (T-cell [3]; [7])	fold induction at 1 µM (T-cell [3]; [7])	pIC50 (Cbl-b [4])	fold induction at 1 µM (T-cell [5]; [8])	pIC50 (Cbl-b [6])	fold induction at 0.3 µM (T-cell [1]; [9])	fold induction at 1 µM (T-cell [1]; [9])	fold induction at 4 µM (T-cell [1]; [9])	fold induction at 1 µM (T-cell [2]; [9])	fold induction at 8 µM (T-cell [2]; [9])	fold induction at 0.3 µM (T-cell [3]; [9])	fold induction at 1 µM (T-cell [3]; [9])	fold induction at 4 µM (T-cell [3]; [9])	fold induction at 1 µM (T-cell [5]; [9])	fold induction at 8 µM (T-cell [5]; [9])
CO[C@@H]1CCN(Cc2cc3c(c(C(F)(F)F)c2)CN(c2cccc(C4(Cc5nncn5C)COC4)c2)C3=O)C[C@@H]1F (relative stereo) [Example 621, 6-(((cis)-3-fluoro-4-methoxypiperidin-1-yl)methyl)-2-(3-(3-((4-methyl-4H-1,2,4-triazol-3-yl)methyl)oxetan-3-yl)phenyl)-4-(trifluoromethyl)isoindolin-1-one]	1.31 to 1.5	1.31 to 1.5	> 0.201	> 7.5	> 7.5	> 7.00	> 1	≥ 7.00	–	–	–	–	–	–	–	–	–	–
CC1CN(c2cc3c(c(C(F)(F)F)c2)CN(c2cccc(C4(Cc5nncn5C)COC4)c2)C3=O)C1C (centres unmarked) [Example 608, 6-(2,3-dimethylazetidin-1-yl)-2-(3-(3-((4-methyl-4H-1,2,4-triazol-3-yl)methyl)oxetan-3-yl)phenyl)-4-(trifluoromethyl)isoindolin-1-one]	1.01 to 1.3	1.01 to 1.3	0.051 to 0.1	1.01 to 2.5	2.51 to 5	> 7.00	0.601 to 0.8	≥ 7.00	–	–	–	–	–	–	–	–	–	–
C[C@H](Sc1nncn1C)c1cccc(NC(=O)c2ccc3ccccc3n2)c1 [Compound 9a]	–	–	–	–	–	–	–	≥ 6.30	1.01 to 1.3	1.01 to 1.3	1.01 to 1.3	< 0.05	0.051 to 0.1	1.01 to 2.5	1.01 to 2.5	1.01 to 2.5	0.601 to 0.8	0.601 to 0.8
CC(Sc1nncn1C)c1cccc(NC(=O)c2ccc3ccccc3n2)c1 (centres unmarked) [Compound 9, N-(3-(1-((4-Methyl-4H-1,2,4-triazol-3-yl)thio)ethyl)phenyl)quinoline-2-carboxamide]	–	–	–	–	–	–	–	≥ 6.00	< 1	< 1	1.01 to 1.3	< 0.05	0.051 to 0.1	1.01 to 2.5	1.01 to 2.5	2.51 to 5	< 0.6	0.601 to 0.8
